Here are results for 3 substances from patent EP0290583B1, “$g(a) OLIGONUCLEOTIDES” (CENTRE NATIONAL DE LA RECHERCHE SCIENTIFIQUE (CNRS), priority 1986, dated 1988).

In assay [1] the test system is fragment d'ADN simple brin (10 nM) de séquence d(^5'TGAGTGAGTAAAAAAAATGAGTGCCAA^3'). As to the kind of experiment: Specific cleavage of single-stranded DNA by a phenanthroline-coupled alpha-oligonucleotide. The assay is classed as biochemical. To be noted: 5µM, sulfate cuivrique (1µM), acide β-mercaptopropionique (1 mM), 0°C, 3 heures. The procedure: (§1) L'α-D-oligonucléotide décrit à l'exemple XIV (5µM) est dissous dans un tampon à pH 7 contenant 10 mM cacodylate de sodium et 0,1 M NaCl. […] Du sulfate cuivrique (1µM) et de l'acide β-mercaptopropionique (1 mM) sont ajoutés à 0°C et le mélange est incubé à 0°C pendant 3 heures. De la bathocuproine est ajoutée pour arrêter la réaction. Le mélange est disposé sur un gel de polyacrylamide à 18 % et soumis à l'électrophorèse.

The test system of assay [2] is fragment d'ADN double brin. As to the kind of experiment: Specific cleavage of double-stranded DNA by a phenanthroline-coupled alpha-oligonucleotide. The assay is classed as biochemical. As to conditions: en présence de 1 mM spermine. The procedure:
as §1
La position des sites de coupure sur le double brin indique que l'α-D-oligothymidylate XIV est orienté parallèlement au brin contenant la séquence A₈.

For assay [3], the system named is β-d^5' [AGATTTGAG]^3'. Kind of assay: Half-dissociation temperature (T 1/2) of the hybridisation complex with a parallel complementary beta strand. As to conditions: 10 mM cacodylate de sodium/0,1M NaCl, pH = 7, 10 µM. The format is binding. From the text: (§2) Les nouveaux produits de formule générale (I) selon l'invention et les produits de formule générale (I) dans laquelle L représente un atome d'oxygène, R et R' représentent chacun un atome d'hydrogène et B représente un base nucléique naturelle forment des complexes d'hybridation avec les séquences complémentaires d'ARN beaucoup plus stables que ceux qui sont formés avec l'ADN. La stabilité peut être mesurée par la température de demi-transition des complexes (T 1/2) lors d'une élévation de température. Les valeurs de T 1/2 sont déterminées à la concentration de 10⁻⁵M en α -oligonucléotide dans un tampon à pH = 7 contenant du cacodylate de sodium (10⁻²M) et du chlorure de sodium (0,1 M). Les résultats sont rassemblés dans les Tableaux I.
(§3) Dans les hybrides formés par les dérivés des α-oligonucléotides selon l'invention avec les séquences d'acides nucléiques complémentaires les deux brins possèdent généralement la même orientation.

The subject of assay [4] is β-d^5'[GAGTTTAGA]^3'. As to the kind of experiment: Complex formation with the antiparallel beta strand. The assay is classed as binding. To be noted: antiparallel sequence; 10 mM cacodylate de sodium/0,1M NaCl, pH = 7, 10 µM.
Excerpt: as §2, §3

Assay [5] relates to β-d^5' (ApCpGpGpApApTpApTpApGpC]^3'. Kind of assay: Half-dissociation temperature (T 1/2) of the hybridisation complex with a parallel complementary beta strand. The format is binding. To be noted: 10 mM cacodylate de sodium/0,1M NaCl, pH = 7, 10 µM.
Excerpt: as §2, §3

Turning to (Phe-CH₂)α-[(sp)(Tp)₇T] [XIV], the “coupure de l'ADN simple brin (sites de coupures)” value in assay [1] is listed as “sites de coupures sont révélés”. Also, the “coupure de l'ADN double brin” value in assay [2] was “induit des coupures sur les deux brins de la double hélice”.

Acr(CH₂)₅ α-d^5'[TCTAAACTC]^3': the “température de demi-dissociation (T 1/2)” value in assay [3] came out at 27 °C. Further, the “complexe mis en évidence au-dessus de 0°C” value in assay [4] is reported as “Aucun complexe”.

As to “[Acr(CH₂)₅]α-d(pCpCpTpTpApTpApTpT) [Acr(CH₂)₅-α-d^5' [pCpCpTpTpApTpApTpT]^3']”, the “température de demi-dissociation (T 1/2)” value in assay [5] worked out at 35 °C.
